Where two headings read alike, the source gives them in different places.
Key:
[1] = tested on: platelets in human whole blood; test: whole blood platelet aggregation in vitro (collagen); assay type: cell-based; settings: for inhibition of platelet aggregation: alone: cilostazol 0.3-3 μM, dipyridamole 1 or 3 μM, 0.1 or 0.3 μg/ml collagen; for effect on platelet aggregation in whole blood: alone: cilostazol 10 or 30 μM, dipyridamole 0.1, 0.3, 1 or 3 μM, 0.5 μg/ml collagen
Method: The electrodes were then placed in the cuvette and the sample was allowed to incubate at 37° C. while the instrument was calibrated. […] Dipyridamole was diluted in ethanol (EtOH) to a stock concentration of 100 mM. […] The suspension was allowed to incubate for 3 minutes before collagen was added. […] […] Data are expressed as percent of the values detected in the absence of any inhibition.

[2] = tested on: human washed platelets; test: collagen-induced aggregation of washed platelets; assay type: cell-based; settings: for inhibitory effect on washed platelet aggregation: alone: dipyridamole 1, 3 or 10 μM, cilostazol 30 or 100 nM, adenosine 1 μM; for IC50: Homo sapiens, Platelet; for inhibition of washed platelet aggregation: single agent + 1 μM adenosine (dipyridamole 1, 3, 10 μM; cilostazol 30 or 100 nM)
Method: Aggregation was quantified by the change in light transmission using an AG-10 Aggregation Analyzer (Kowa, Japan). Washed platelets were maintained at room temperature and the study was performed within 3 hours following blood collection. Cilostazol was dissolved in DMSO and adenosine was dissolved in water. […] Drug or vehicle (DMSO) was then added (0.4 μl) and incubated for another 3 minutes. […] The overall time of aggregation recorded was 15 minutes.

[3] = tested on: PDE3; settings: Liu et al., 2000; read-out: potency for inhibition of PDE3; cited from earlier work
[4] = tested on: adenosine uptake; settings: cited from earlier work; for IC50: read-out: IC50 of adenosine uptake inhibition
[5] = tested on: whole blood platelet aggregation; test: ex vivo whole blood platelet aggregation, clinical crossover study; assay type: in vivo, human; settings: alone: cilostazol 100 mg, dipyridamole 200 mg
Method: On study day 4, subjects received one 200 mg tablet of dipyridamole. […] The platelet aggregation was induced by the addition of collagen (final concentration of 0.3 μg/ml, Nycomed Arzneimittel, Munchen, Germany). The percentage aggregation was recorded at each time point. To compare the effect of drug treatments, the aggregation at 2-hour and 4-hour is normalized as a percentage to the values prior to dosing.

[6] = tested on: isolated rabbit Langendorff hearts; settings: concentrations below 1 μM, previous studies; cited from earlier work
[7] = blood concentration during intravenous infusion; assay type: in vivo, rabbit; settings: cilostazol 0.225 mg/kg bolus + 0.0175 mg/kg/min i.v.; dipyridamole 20 μg/kg/min i.v.
Method: Sixty minutes after the surgery, injection of vehicle or the drug combination was initiated. After 20 minutes, the gastrocnemius muscle of the left hindlimb was stimulated throughout the rest of the experiment. Twenty minutes after the stimulation (40 minute time point in FIG. 15), the left femoral artery was clamped for 20 minutes to induce ischemia and then released to allow reperfusion. The regional blood flow was determined by the injection at 0, 20, 40, 60, and 80 minutes of blue-green, yellow-green, orange, red and crimson fluorescent microspheres.

[8] = blood concentration after single oral dose; assay type: in vivo, human; settings: 2 and 4 hours after a single dose
[9] = tested on: isolated rabbit Langendorff hearts; test: cardiac function of isolated rabbit Langendorff hearts
Method: This study was conducted in accordance with the “Guide for the Care And Use of Laboratory Animals”, published by the National Research Council, 1996, Washington D.C., and approved by the Institutional Animal Care and Use Committee of Otsuka Maryland Research Institute, LLC. […] A tracheotomy was performed and the animals were intubated. […] The respiratory rate was adjusted to keep arterial blood PO2, PCO2 and pH in the physiological range. […] Hearts were exposed through a mid-line incision of the chest, and quickly excised by an incision at the base of the heart and put into ice-cold Krebs-Henseleit bicarbonate buffer. The heart was then attached to a Langendorff apparatus by the aortic root, and perfused with non-recirculating Krebs-Henseleit buffer at a constant pressure of 75 mmHg. The perfusate was bubbled with 95% O2 and 5% CO2 gas mixture, and the bubbling rate was adjusted to maintain physiological pH (7.35-7.45). Perfusate temperature was maintained at 38° C. by a circulating waterjacket surrounding the buffer reservoirs. The heart was also maintained at 38° C. via a water-jacketed housing in which it was suspended. The open top of the jacket was covered with a piece of parafilm to maintain the humidity and temperature. The pulmonary artery around the right side of the aortic root was cannulated for collecting coronary effluent and for coronary flow rate measurement with a graduated cylinder. […] The pressure transducer was connected to a Grass Chart Recorder (Model 7) to record left ventricular pressure and its first derivative (dp/dt), and heart rate. Hearts with left ventricular developing pressure less than 85 mmHg at the end of the 15-min equilibrium period were not included in the study. The cardiac function indexes measured were LVDP (left ventricular developed pressure), dp/dtmax (the maximal value of the first derivative of the LVDP), heart rate, and coronary flow. […] Measurements for cardiac function were taken at the end of each 5 min drug treatment. The effect of drug treatment is expressed as the percent change of values before and after each drug treatment: % Change from Baseline=[(Value after drug−Value before drug)/Value before drug]×100 Statistical Analysis

[10] = tested on: adenosine uptake into washed human erythrocytes; test: [3H]adenosine uptake into washed erythrocytes; assay type: cell-based
Method: Washed erythrocytes (wRBC) were prepared as follows.

[11] = tested on: adenosine A2A-expressing Chinese hamster ovary (CHO) cells; test: CRE-luciferase assay (intracellular cAMP) in CHO cells expressing human adenosine A2A receptor; assay type: cell-based; settings: range 0.5 μM to 10 μM
Method: The level of luciferase expression reflects the concentration of intracellular cAMP. […] Therefore, the activation of the receptors would be reflected by luciferase expression, where the expression level can be measured by the luciferase activity assay. Co-transfection of the luciferase reporter vector with the vectors containing adenosine A2A receptors was carried out by calcium phosphate precipitation into Chinese hamster ovary (CHO) cells. Stable transfectants were selected with 1.0 mg/ml G418 (Life Technologies) for 12 days. The cell clones over-expressing functional adenosine A2A receptors were determined by luciferase expression under the stimulation of adenosine.
The next day, the cells were washed once with F12K medium supplemented with 0.5% FCS and then incubated with 100 μl of the medium only (basal) or medium plus test agents for 4 hours at 37° C. After equilibrating to room temperature, 100 μl of detection substrate (Bright-Glo™ luciferase assay system, Promega, Madison, Wis.) were added to each well. The luciferase activity was measured after 5 minutes using a Mediators PhL luminescence plate reader (ImmTech, New Windsor, Md.). The value of luminescence (arbitrary unit) detected during half a second was taken as luciferase activity.

[12] = 2 and 4 hours after a single dose of 200 mg, previous pharmacokinetic data; cited from earlier work
[13] = tested on: whole blood; test: adenosine concentration in plasma of collagen-stimulated whole blood (HPLC); assay type: cell-based, human; settings: dipyridamole 1 μM, 5 minutes after 2 μg/ml collagen, n=3
Method: Blood was drawn and mixed with recombinant human huridin (100 U/ml). The same procedure for platelet aggregation was used to stimulate these platelets with collagen (2 μg/ml). After a 5-minute incubation, 500 μl of WB were mixed quickly with 500 μl of ice-cold saline. The cells were spun at 20,000×g for 4 minutes at 4° C. Supernatant (600 μl) was first mixed with 300 μl PCA (2.5 N) and then neutralized with 300 μl of KHCO3 (2.5 M). Finally, the mixture was centrifuged at 20,000×g for 15 minutes at 4° C. The adenosine concentration in the supernatants was measured using reverse-phase high performance liquid chromatography (HPLC, Waters Alliance 2690) with a Hypersil 3μ C18 column (150 mm×4.6 mm) and a gradient from 5 to 20% methanol in 20 mM KH2PO4. Adenosine was detected using a diode array detector (Water 996) with an absorbance change at 258 nm and quantified by comparison of retention times and peak height with those of a known external standard. Quantification was performed using Waters Millennium 32 Client/Server software.

[14] = tested on: adenosine uptake into CHO cells over-expressing functional human A2A receptors; test: [3H]adenosine uptake into CHO cells over-expressing human A2A receptors; assay type: cell-based; settings: compared with platelets and erythrocytes, data not shown
[15] = dipyridamole 0.3, 1 or 3 μM with cilostazol

For `Nc1nc(NCCc2ccc(O)cc2)nc2nc(-c3ccco3)nn12` [ZM241385], the “effect on the synergistic effect of dipyridamole and cilostazol on whole blood aggregation” value ([1]; ZM241385 0.1 μM, n=8) was “reverted back to the basal level of cilostazol alone”.
With `Nc1ncnc2c1ncn2[C@@H]1O[C@H](CO)[C@@H](O)[C@H]1O` [adenosine] the “effect on collagen-induced platelet aggregation” value ([2]; 1 μM, by itself) was “little effect” and the “inhibitory effect on washed platelet aggregation” value [2] was “no effect”.
In the case of `O=C1CCc2cc(OCCCCc3nnnn3C3CCCCC3)ccc2N1` [cilostazol, 6-[4-(1-cyclohexyl-1H-tetrazol-5yl)butoxy]-3,4-dihydro-2(1H)-quinolinone], the IC50 [3] is listed as 320 nM, the IC50 ([4]; various cells (rabbit cardiac myocytes, human vascular smooth muscle, endothelial cells), Liu et al., 2000) is listed as 5000 to 10000 nM and the “effect on collagen-induced platelet aggregation” value ([2]; 1 μM, by itself) is listed as “little effect”. The IC50 ([2]; read-out: IC50 of Cilostazol on Platelet Aggregation, +Adenosine (1 μM)) was 380 ± 50 nM, the IC50 ([2]; read-out: IC50 of Cilostazol on Platelet Aggregation, +Adenosine + Dipyridamole (1 μM)) was 170 ± 40 nM and the IC50 ([2]; read-out: IC50 of Cilostazol on Platelet Aggregation, +Adenosine + Dipyridamole (3 μM)) was 110 nM. For the same molecule, the IC50 ([2]; read-out: IC50 of Cilostazol on Platelet Aggregation, +Adenosine + Dipyridamole (10 μM)) was 10 ± 10 nM, the IC50 ([2]; read-out: IC50 of Cilostazol on Platelet Aggregation, cilostazol alone, washed platelets, collagen) was 2660 ± 410 nM and the “inhibitory effect on washed platelet aggregation” value [2] was “no significant inhibitory effect”. For the same molecule, the “effect on collagen-induced platelet aggregation” value ([2]; cilostazol 1 μM combined with adenosine 1 μM) was “completely inhibited”, the “inhibition of washed platelet aggregation” value [2] was “significant differences from controls” and the “inhibition of ex vivo platelet aggregation” value [5] was “neither cilostazol nor dipyridamole alone inhibited”. The “effects on cardiac function” value [6] was “minimal effects”, the blood concentration [7] was “about 1 μM” and the blood concentration [8] was “about 2 μM”. For the same molecule, the coronary flow ([9]; cilostazol 3 or 10 μM) was “significantly increased”, the “inhibition of platelet aggregation” value [1] was “did not cause any significant inhibition” and the “effect on platelet aggregation in whole blood” value [1] was “did not have a significant effect”. The IC50 ([10]; Homo sapiens, Erythrocyte, washed erythrocytes, n=3, read-out: IC50 of adenosine uptake inhibition) was about 7000 nM.
In the case of `OCCN(CCO)c1nc(N2CCCCC2)c2nc(N(CCO)CCO)nc(N3CCCCC3)c2n1` [dipyridamole], the IC50 [4] is listed as 10 nM, the “dipyridamole concentration of peak enhancement of cilostazol effect on luciferase activity” value [11] is listed as “about 5 μM” and the “inhibitory effect on washed platelet aggregation” value [2] is listed as “no significant inhibitory effect”. For the same molecule, the “inhibition of washed platelet aggregation” value [2] was “enhanced the effect of dipyridamole significantly”, the blood concentration [12] was “about 2 μM” and the “inhibition of ex vivo platelet aggregation” value [5] was “neither cilostazol nor dipyridamole alone inhibited”. For the same molecule, the blood concentration [7] was “about 1 μM”, the “effect on cardiac function” value ([9]; dipyridamole 0.3, 1 or 3 μM alone) was “no significant effect” and the “cilostazol-induced increase of cardiac contractility” value [9, 15] was “significantly reduced”. For the same molecule, the “cilostazol-induced increase of heart rate” value [9, 15] was “significantly reduced”, the “cilostazol-induced increase in coronary flow” value ([9]; dipyridamole 1 and 3 μM with cilostazol 10 μM) was “augmented” and the “inhibition of platelet aggregation” value [1] was “did not cause any significant inhibition”. The “effect on platelet aggregation in whole blood” value [1] was “did not have a significant effect”, the platelet aggregation ([1]; dipyridamole 1 μM, 2 μg/ml collagen) was “not affected” and the “adenosine levels in whole blood plasma” value [13] was 5.916 ± 0.641 µM.
In the case of `Cc1[nH]c(=O)c(C#N)cc1-c1ccncc1` [milrinone], the “inhibitory effect on adenosine uptake” value ([4]; at concentrations as high as 100 μM, Liu et al., 2000) is listed as “no significant inhibitory effect”, the “inhibition of [3H]adenosine uptake” value [14] is listed as “no effect” and the “effect on adenosine uptake” value ([10]; erythrocytes) is listed as “virtually no effect”.

Reference: US20050165030A1, “Pharmaceutical compositions comprising a multifunctional phosphodiesterase inhibitor and an adenosine uptake inhibitor” (priority 2001, published 2005)
